One may read the IC50 as the concentration at which inhibition is half-maximal.

Assay [1] concerns the target T1, AHR (Homo sapiens, UniProt P35869).
T1 construct: U87 MG glioblastoma cells (ATCC #HTB-14) endogenously expressing AHR; endogenous in cells; host or cells: U87 MG glioblastoma cells (ATCC #HTB-14)
T1 sequence (P35869 11-848): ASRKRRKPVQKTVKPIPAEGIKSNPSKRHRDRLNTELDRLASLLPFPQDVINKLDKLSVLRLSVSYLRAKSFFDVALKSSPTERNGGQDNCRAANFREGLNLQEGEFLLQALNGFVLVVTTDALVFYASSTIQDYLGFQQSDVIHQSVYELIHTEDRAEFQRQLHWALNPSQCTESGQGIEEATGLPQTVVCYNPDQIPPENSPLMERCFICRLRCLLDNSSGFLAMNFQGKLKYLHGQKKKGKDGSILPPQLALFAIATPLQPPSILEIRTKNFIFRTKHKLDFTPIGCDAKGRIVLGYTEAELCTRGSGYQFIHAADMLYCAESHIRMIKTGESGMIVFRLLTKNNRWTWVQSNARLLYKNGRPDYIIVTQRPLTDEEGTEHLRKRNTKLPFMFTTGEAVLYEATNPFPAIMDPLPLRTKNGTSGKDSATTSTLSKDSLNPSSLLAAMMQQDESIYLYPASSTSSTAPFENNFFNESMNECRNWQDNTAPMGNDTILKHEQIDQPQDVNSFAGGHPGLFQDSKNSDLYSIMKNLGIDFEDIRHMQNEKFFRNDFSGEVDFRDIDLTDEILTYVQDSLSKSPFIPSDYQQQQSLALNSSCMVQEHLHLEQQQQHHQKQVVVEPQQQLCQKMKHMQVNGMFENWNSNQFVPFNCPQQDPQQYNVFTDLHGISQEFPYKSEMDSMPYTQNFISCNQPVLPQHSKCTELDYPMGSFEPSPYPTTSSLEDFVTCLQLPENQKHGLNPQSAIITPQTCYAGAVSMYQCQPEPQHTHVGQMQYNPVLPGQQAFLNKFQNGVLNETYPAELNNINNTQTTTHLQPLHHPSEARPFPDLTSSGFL
The assay can be described thus: In vitro assay 1: antagonism in human cell line (AHR transactivation, firefly luciferase reporter, kynurenic acid prestimulated). The assay is classed as cell-based. The following applies: AHR Antagonism Human IC50 [M]. The essentials:
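Antagonism is measured against kynurenic acid prestimulation in U87 MG glioblastoma cells carrying stable DRE-luciferase and Renilla reporters. Positive inhibition control: 150 μM kynurenic acid with 5 μM staurosporine. Values are normalized to controls; repeats are averaged or given as medians.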
On the technique in general: A reporter such as luciferase makes a cellular process visible.

Assay [2] has as its target T2, AHR (Mus musculus, UniProt P30561).
T2 sequence (P30561 1-848 P471L/N533S/M589L): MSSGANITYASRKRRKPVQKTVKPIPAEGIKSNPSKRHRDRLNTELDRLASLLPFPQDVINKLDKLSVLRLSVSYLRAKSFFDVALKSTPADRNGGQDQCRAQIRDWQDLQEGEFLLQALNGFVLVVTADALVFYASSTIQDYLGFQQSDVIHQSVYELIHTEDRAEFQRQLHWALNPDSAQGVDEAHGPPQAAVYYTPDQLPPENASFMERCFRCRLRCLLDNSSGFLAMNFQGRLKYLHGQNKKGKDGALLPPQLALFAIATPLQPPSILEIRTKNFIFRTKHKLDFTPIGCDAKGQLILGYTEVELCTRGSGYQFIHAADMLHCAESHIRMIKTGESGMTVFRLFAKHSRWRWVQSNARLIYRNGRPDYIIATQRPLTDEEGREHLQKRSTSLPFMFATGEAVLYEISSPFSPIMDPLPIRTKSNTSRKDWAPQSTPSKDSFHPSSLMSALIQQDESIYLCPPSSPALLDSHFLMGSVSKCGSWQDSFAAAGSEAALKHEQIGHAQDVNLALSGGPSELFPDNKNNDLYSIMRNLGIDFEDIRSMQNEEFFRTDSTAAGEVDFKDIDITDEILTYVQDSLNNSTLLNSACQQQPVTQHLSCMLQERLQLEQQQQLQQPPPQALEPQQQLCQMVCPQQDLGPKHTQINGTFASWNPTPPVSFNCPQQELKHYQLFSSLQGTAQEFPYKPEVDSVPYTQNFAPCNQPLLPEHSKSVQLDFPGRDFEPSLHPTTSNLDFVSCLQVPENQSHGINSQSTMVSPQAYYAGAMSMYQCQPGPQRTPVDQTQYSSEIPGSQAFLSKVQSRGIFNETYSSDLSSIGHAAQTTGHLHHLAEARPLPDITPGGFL
The assay is described as follows: In vitro assay 3: antagonism in mouse cell line (AHR transactivation, firefly luciferase reporter, kynurenic acid prestimulated). It is filed as cell-based. The essentials:
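Antagonism read as reduced firefly luciferase signal (SteadyGlo) from a stably transfected AHR/DRE reporter in a mouse line prestimulated with kynurenic acid. Data normalized to controls, the full-inhibition control being cells without kynurenic acid; multiple determinations given as average or median values.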

The mark [3] stands for this setting: mouse Hepa 1c1c7 cells, 200 μM kynurenic acid, 20 hours, read-out: AHR Antagonism Mouse IC50.
[4] abbreviates: Hepa 1c1c7 cells, 200 μM kynurenic acid, 20 hours, firefly luciferase reporter, read-out: AHR Antagonism Mouse IC50.

Read-outs that look alike come from different tables or passages of the source.

For the compound `CS(=O)(=O)c1ccc(-c2nc3c4ccccc4nc(N[C@H]4CCCCNC4=O)n3n2)cc1` [Example 375, (3S)-3-({2-[4-(methanesulfonyl)phenyl][1,2,4]triazolo[1,5-c]quinazolin-5-yl}amino)azepan-2-one], the half-maximal inhibitory concentration (IC50) on AHR [1] was found to be 7.95e-07 M; at AHR [2] (setting [3]), 0.0306 µM.
Take `C[C@@H](Nc1nc2c(C(F)(F)F)cccc2c2nc(-c3cnn(C)c3)nn12)C(=O)N1CCOCC1` [Example 874, (2R)-2-{[2-(1-methyl-1H-pyrazol-4-yl)-7-(trifluoromethyl)[1,2,4]triazolo[1,5-c]quinazolin-5-yl]amino}-1-(morpholin-4-yl)propan-1-one]: the IC50 against AHR [1] (firefly luciferase reporter) amounted to 2.31e-08 M; at AHR [2] (setting [4]) it was 0.0617 µM.
For `COc1ccc(-c2nc3c4c(CO)cccc4nc(N[C@@H]4CCCCNC4=O)n3n2)cc1` [Example 862, (3R)-3-{[10-(hydroxymethyl)-2-(4-methoxyphenyl)[1,2,4]triazolo[1,5-c]quinazolin-5-yl]amino}azepan-2-one], the half-maximal inhibitory concentration (IC50) against AHR [1] (firefly luciferase reporter) came to 1.86e-09 M; on AHR [2] (setting [4]) it was 0.00412 µM.
As for `COc1ccc(-c2nc3c4ccccc4nc(N[C@H](C)C(=O)NCCN(C)C(=O)OC(C)(C)C)n3n2)cc1` [Example 889, tert-butyl [2-({N-[2-(4-methoxyphenyl)[1,2,4]triazolo[1,5-c]quinazolin-5-yl]-D-alanyl}amino)ethyl]methylcarbamate], the IC50 was found to be 3.9e-09 M on AHR [1] (firefly luciferase reporter) and 0.00445 µM on AHR [2] (setting [4]).
For the compound `O=C1NCCCC[C@H]1Nc1nc2ccccc2c2nc(-c3cccc(Cl)c3Cl)nn12` [Example 196, (3R)-3-{[2-(2,3-dichlorophenyl)[1,2,4]triazolo[1,5-c]quinazolin-5-yl]amino}azepan-2-one], the figures for the IC50 against AHR [1] and on AHR [2] (setting [3]) were 4.09e-09 M and 0.00111 µM, respectively.
On to `CC(C)c1cccc2c1nc(N[C@@H]1CCCCNC1=O)n1nc(-c3ccc(F)cc3)nc21` [Example 393, (3R)-3-{[2-(4-Fluorophenyl)-7-(propan-2-yl)[1,2,4]triazolo[1,5-c]quinazolin-5-yl]amino}azepan-2-one], for which the half-inhibitory concentration (IC50) against AHR [1] was 4.34e-08 M; on AHR [2] (read-out: AHR Antagonism Mouse IC50, mouse Hepa 1c1c7 cells, 200 μM kynurenic acid, 20 hours), 0.0342 µM.
Take `O=C1NCCCC[C@H]1Nc1nc2ccccc2c2nc(-c3c[nH]nc3C(F)(F)F)nn12` [Example 604, (3R)-3-({2-[3-(trifluoromethyl)-1H-pyrazol-4-yl][1,2,4]triazolo[1,5-c]quinazolin-5-yl}amino)azepan-2-one]: the half-inhibitory concentration (IC50) at AHR [1] is 1.33e-07 M; at AHR [2] (setting [3]) it was 0.347 µM.
`COc1cccc(-c2nc3c4ccccc4nc(NC4CCCNC4=O)n3n2)c1` (single isomer, unassigned) [Example 118, 3-{[2-(3-methoxyphenyl)[1,2,4]triazolo[1,5-c]quinazolin-5-yl]amino}piperidin-2-one]: the results for the concentration for half-maximal inhibition (IC50) at AHR [1] and on AHR [2] (setting [3]) were 6.43e-08 M and 0.0402 µM, respectively.
Regarding `COc1ccc2nc(N[C@@H]3CCCCNC3=O)n3nc(-c4ccc(F)cc4)nc3c2c1` [Example 239, (3R)-3-{[2-(4-fluorophenyl)-9-methoxy[1,2,4]triazolo[1,5-c]quinazolin-5-yl]amino}azepan-2-one], the half-maximal inhibitory concentration (IC50) was found to be 8.92e-09 M at AHR [1] and 0.0102 µM on AHR [2] (setting [3]).
On the same counts, the results for `O=C1NCCCC[C@H]1Nc1nc2ccccc2c2nc(-c3cnn(C4CC4)c3)nn12` [Example 535, (3R)-3-{[2-(1-cyclopropyl-1H-pyrazol-4-yl)[1,2,4]triazolo[1,5-c]quinazolin-5-yl]amino}azepan-2-one] are 5.13e-09 M and 0.00257 µM.
As to `CC[C@@H](Nc1nc2ccccc2c2nc(-c3cscc3C)nn12)C(N)=O` [Example 542], the figures for the IC50 on AHR [1] and on AHR [2] (setting [3]) were 3.55e-09 M and 0.000565 µM, respectively.
With `CCCCNC(=O)[C@H](C)Nc1nc2c(Br)cccc2c2nc(-c3ccc(Cl)cc3OC(F)(F)F)nn12` [Example 687, N^2-{7-bromo-2-[4-chloro-2-(trifluoromethoxy)phenyl][1,2,4]triazolo[1,5-c]quinazolin-5-yl}-N-butyl-L-alaninamide], the IC50 at AHR [1] is more than 2e-06 M; at AHR [2] (setting [3]) it was 0.0978 µM.
On the same counts, the results for `O=C1NCCCC[C@H]1Nc1nc2ccc(F)cc2c2nc(-c3ccccc3F)nn12` [Example 234, (3R)-3-{[9-fluoro-2-(2-fluorophenyl)[1,2,4]triazolo[1,5-c]quinazolin-5-yl]amino}azepan-2-one] are 1.7e-09 M and 0.0014 µM.
Take `O=C1NCC[C@H]1Nc1nc2ccccc2c2nc(-c3ccccc3OC(F)(F)F)nn12` [Example 459, (3R)-3-({2-[2-(trifluoromethoxy)phenyl][1,2,4]triazolo[1,5-c]quinazolin-5-yl}amino)pyrrolidin-2-one]: the values for the IC50 against AHR [1] and at AHR [2] (setting [3]) were 7.9e-08 M and 0.0302 µM, respectively.
The corresponding values for `Cc1nn(C(C)C)cc1-c1nc2c3cccc(C(F)(F)F)c3nc(N[C@@H]3CCCCNC3=O)n2n1` [Example 748, (3R)-3-({2-[3-methyl-1-(propan-2-yl)-1H-pyrazol-4-yl]-7-(trifluoromethyl)[1,2,4]triazolo[1,5-c]quinazolin-5-yl}amino)azepan-2-one] are 3.9e-10 M and 0.000656 µM.
Take `COc1ccc(-c2nc3c4cccc(Br)c4nc(N[C@H]4CCCCNC4=O)n3n2)c(OC(F)(F)F)c1` [Example 566, (3S)-3-({7-bromo-2-[4-methoxy-2-(trifluromethoxy)phenyl][1,2,4]triazolo[1,5-c]quinazolin-5-yl}amino)azepan-2-one]: the half-maximal inhibitory concentration (IC50) at AHR [1] is 1.76e-07 M; at AHR [2] (setting [3]), 0.0208 µM.
The corresponding values for `Nc1cccc(-c2nc3c4ccccc4nc(N[C@@H]4CNCCNC4=O)n3n2)c1` [Example 413, (6R)-6-{[2-(3-aminophenyl)[1,2,4]triazolo[1,5-c]quinazolin-5-yl]amino}-1,4-diazepan-5-one] are 8.94e-08 M and 0.0621 µM.
On the same counts, the results for `Cc1ncc(-c2nc3c4ccccc4nc(N[C@@H]4CCCCNC4=O)n3n2)cc1F` [Example 641, (3R)-3-{[2-(5-fluoro-6-methylpyridin-3-yl)[1,2,4]triazolo[1,5-c]quinazolin-5-yl]amino}azepan-2-one] are 6.85e-09 M and 0.00246 µM.
As for `CSc1ccc(-c2nc3c4ccccc4nc(N[C@@H]4CCCCNC4=O)n3n2)c(F)c1` [Example 630, (3R)-3-({2-[2-fluoro-4-(methylsulfanyl)phenyl][1,2,4]triazolo[1,5-c]quinazolin-5-yl}amino)azepan-2-one], the IC50 worked out at 4.83e-10 M against AHR [1] and 0.000861 µM at AHR [2] (setting [3]).
Take `COc1ccc2nc(N[C@@H]3CCCCNC3=O)n3nc(-c4cnn(C)c4)nc3c2c1` [Example 238, (3R)-3-{[9-methoxy-2-(1-methyl-1H-pyrazol-4-yl)[1,2,4]triazolo[1,5-c]quinazolin-5-yl]amino}azepan-2-one]: the values for the IC50 at AHR [1] and on AHR [2] (setting [3]) were 1.69e-07 M and 0.344 µM, respectively.

The record behind these values is patent publication US20230113037A1 (Bayer Aktiengesellschaft, priority 2019, published 2023).
